Molecules are shown by their SMILES.

The target of assay [1] is T1, FAAH (Mus musculus (Mouse), UniProt O08914). The assay is described as follows: In vitro competitive activity-based protein profiling (mouse brain membrane fraction or cell lysates), FAAH band. Type of assay: biochemical. The conditions noted are these: mouse proteome; for inhibition at 1 µM: read-out: FAAH % Inh 1 μM (mouse); for IC50: competitive ABPP. The essentials: (§1)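 Residual hydrolase activity was measured as gel band fluorescence after FP-Rh labelling (30 min, 37° C) of proteomes pretreated 30 min at 37° C with inhibitor.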
T1 sequence (O08914 whole entry): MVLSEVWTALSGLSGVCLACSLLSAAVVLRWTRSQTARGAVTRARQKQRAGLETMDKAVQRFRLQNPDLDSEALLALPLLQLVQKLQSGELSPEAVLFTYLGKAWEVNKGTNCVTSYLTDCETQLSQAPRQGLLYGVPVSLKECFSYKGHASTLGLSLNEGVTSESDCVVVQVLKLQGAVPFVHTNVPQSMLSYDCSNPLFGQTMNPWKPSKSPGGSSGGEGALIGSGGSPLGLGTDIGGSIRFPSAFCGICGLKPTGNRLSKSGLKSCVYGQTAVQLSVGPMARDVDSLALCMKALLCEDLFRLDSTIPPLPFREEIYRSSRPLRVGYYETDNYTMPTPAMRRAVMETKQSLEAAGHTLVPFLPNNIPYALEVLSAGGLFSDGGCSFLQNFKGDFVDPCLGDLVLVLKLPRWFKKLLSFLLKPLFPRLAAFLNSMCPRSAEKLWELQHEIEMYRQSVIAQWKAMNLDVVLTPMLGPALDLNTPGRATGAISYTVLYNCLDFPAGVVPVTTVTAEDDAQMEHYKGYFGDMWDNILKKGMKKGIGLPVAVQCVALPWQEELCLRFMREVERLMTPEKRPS

The target of assay [2] is T2, MAGL (Mus musculus (Mouse), UniProt O35678). In words: Mouse brain proteomes from inhibitor treated mice (oral gavage, sacrificed 4 h after administration, ABPP analysis). The format is in vivo, mouse (C57Bl/6J). Particulars: 5 mg/kg oral gavage. In short, it runs like this: (§2)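 Mice (wild-type C57Bl/6J) receive inhibitor by oral gavage, e.g. in PEG400/Ethanol/PBS (7/2/1). Each animal is killed 4 h later. Brain proteomes are prepared and analyzed by ABPP, giving % inhibition at 5 mg/kg.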
T2 sequence (O35678 whole entry): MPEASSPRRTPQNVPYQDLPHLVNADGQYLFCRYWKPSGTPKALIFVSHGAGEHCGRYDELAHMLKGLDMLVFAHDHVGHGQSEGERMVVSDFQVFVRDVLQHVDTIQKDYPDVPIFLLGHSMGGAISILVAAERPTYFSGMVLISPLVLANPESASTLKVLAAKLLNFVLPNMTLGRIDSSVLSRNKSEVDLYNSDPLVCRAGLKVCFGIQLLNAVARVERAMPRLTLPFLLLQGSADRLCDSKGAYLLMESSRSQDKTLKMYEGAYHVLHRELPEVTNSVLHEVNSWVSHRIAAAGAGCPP

In assay [3] the target is T3, ABHD6 (Mus musculus (Mouse), UniProt Q8R2Y0). The assay is described as follows: In vitro competitive activity-based protein profiling (mouse brain membrane fraction or cell lysates), ABHD6 band. The format is biochemical. Particulars: mouse proteome; for inhibition at 1 µM: read-out: ABHD6 % Inh 1 μM (mouse); for IC50: competitive ABPP. The essentials:
as §1

For assay [4], the target named is T1, FAAH. The assay is described as follows: Mouse brain proteomes from inhibitor treated mice (oral gavage, sacrificed 4 h after administration, ABPP analysis), FAAH. The format is in vivo, mouse (C57Bl/6J). Particulars: 5 mg/kg oral gavage. In short, it runs like this: as §2
For assay [5], the target named is T3, ABHD6. The assay is described as follows: Mouse brain proteomes from inhibitor treated mice (oral gavage, sacrificed 4 h after administration, ABPP analysis), ABHD6. The format is in vivo, mouse (C57Bl/6J). Particulars: 5 mg/kg oral gavage. In short, it runs like this:
as §2

Assay [6] addresses T2, MAGL. In words: In vitro competitive activity-based protein profiling (mouse brain membrane fraction or cell lysates), MAGL band. The conditions noted are these: mouse proteome; for inhibition at 1 µM: read-out: MAGL % Inh 1 μM (mouse); for IC50: competitive ABPP. Type of assay: biochemical. On the procedure:
In Vitro Competitive Activity-Based Protein Profiling.
Proteomes (mouse brain membrane fraction or cell lysates) (50 μL, 1.0 mg/mL total protein concentration) were preincubated with varying concentrations of inhibitors at 37° C. After 30 min, FP—Rh (1.0 μL, 50 μM in DMSO) was added and the mixture was incubated for another 30 min at 37° C. Reactions were quenched with SDS loading buffer (50 μL-4×) and run on SDS-PAGE.

T3 sequence (Q8R2Y0 whole entry): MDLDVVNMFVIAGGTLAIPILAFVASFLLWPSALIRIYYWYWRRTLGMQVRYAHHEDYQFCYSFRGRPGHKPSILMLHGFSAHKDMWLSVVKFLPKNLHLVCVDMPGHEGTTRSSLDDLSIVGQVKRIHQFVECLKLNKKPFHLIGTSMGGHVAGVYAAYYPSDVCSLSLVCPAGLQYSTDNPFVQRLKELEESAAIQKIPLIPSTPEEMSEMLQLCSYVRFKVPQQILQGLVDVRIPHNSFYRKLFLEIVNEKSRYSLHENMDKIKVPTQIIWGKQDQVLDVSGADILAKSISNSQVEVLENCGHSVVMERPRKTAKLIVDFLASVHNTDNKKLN

For orientation: IC50 means the concentration that gives 50% inhibition. A higher IC50 goes with weaker potency. For `O=C(OC(C(F)(F)F)C(F)(F)F)N1CCC2(CCCN2Cc2ccc(Cl)cc2N2CC3COCC3C2)CC1` (stereo not drawn) [Example 108, 1,1,1,3,3,3-Hexafluoropropan-2-yl 1-(4-chloro-2-(tetrahydro-1H-furo[3,4-c]pyrrol-5(3H)-yl)benzyl)-1,8-diazaspiro[4.5]decane-8-carboxylate], the values for the inhibition at 1 µM on FAAH [1], at ABHD6 [3] and at MAGL [6] were less than 25%, less than 25% and more than 75%, respectively. The IC50 on FAAH [1] was more than 1000 nM; at ABHD6 [3], more than 1000 nM; at MAGL [6], less than 100 nM. In addition, at MAGL [2], the “MAGL % Inh 5 mg/kg (mouse)” value is “### (### is ≥75%)”. The “FAAH % Inh 5 mg/kg (mouse)” value at FAAH [4] is given as “# (# is <25%)”. In addition, at ABHD6 [5], the “ABHD6 % Inh 5 mg/kg (mouse)” value is on record as “# (# is <25%)”.

As to `O=C(OC(C(F)(F)F)C(F)(F)F)N1CCC2(CCCN2Cc2cccc(N3CCOCC3)c2Cl)CC1` [Example 79, 1,1,1,3,3,3-Hexafluoropropan-2-yl 1-(2-chloro-3-morpholinobenzyl)-1,8-diazaspiro[4.5]decane-8-carboxylate], the inhibition at 1 µM is less than 25% on FAAH [1], less than 25% on ABHD6 [3] and more than 75% on MAGL [6]. Also, the half-maximal inhibitory concentration (IC50) at FAAH [1] is more than 1000 nM; at ABHD6 [3] it was more than 1000 nM; at MAGL [6], less than 100 nM. Further, the “MAGL % Inh 5 mg/kg (mouse)” value on MAGL [2] is reported as “### (### is ≥75%)”. Besides, the “FAAH % Inh 5 mg/kg (mouse)” value on FAAH [4] is “# (# is <25%)”. Also, the “ABHD6 % Inh 5 mg/kg (mouse)” value at ABHD6 [5] is on record as “# (# is <25%)”.

With `O=C(OC(C(F)(F)F)C(F)(F)F)N1CCC2(CCCN2Cc2cc(Cl)cc(N3CCOCC3)c2)CC1` [Example 33, 1,1,1,3,3,3-Hexafluoropropan-2-yl 1-(3-chloro-5-morpholinobenzyl)-1,8-diazaspiro[4.5]decane-8-carboxylate], the inhibition at 1 µM on FAAH [1] was less than 25%; at ABHD6 [3], less than 25%; at MAGL [6], more than 75%. Further, the IC50 is more than 1000 nM at FAAH [1], more than 1000 nM on ABHD6 [3] and less than 100 nM on MAGL [6]. The “MAGL % Inh 5 mg/kg (mouse)” value on MAGL [2] is listed as “### (### is ≥75%)”. Besides, the “FAAH % Inh 5 mg/kg (mouse)” value at FAAH [4] is given as “## (## is equal to or greater than 25% but less than 75%)”. For the same compound, at ABHD6 [5], the “ABHD6 % Inh 5 mg/kg (mouse)” value is listed as “# (# is <25%)”.

With `O=C(OC(C(F)(F)F)C(F)(F)F)N1CCC2(CCCN2Cc2ccc(N3CCOCC3)c(C(F)(F)F)c2)CC1` [Example 129, 1,1,1,3,3,3-Hexafluoropropan-2-yl 1-(4-morpholino-3-(trifluoromethyl)benzyl)-1,8-diazaspiro[4.5]decane-8-carboxylate], the inhibition at 1 µM was less than 25% at FAAH [1], 25 to 75% at ABHD6 [3] and more than 75% on MAGL [6]. In addition, the IC50 is more than 1000 nM at FAAH [1], more than 1000 nM on ABHD6 [3] and less than 100 nM on MAGL [6]. Besides, at MAGL [2], the “MAGL % Inh 5 mg/kg (mouse)” value is recorded as “### (### is ≥75%)”. Besides, the “FAAH % Inh 5 mg/kg (mouse)” value on FAAH [4] is “# (# is <25%)”. The “ABHD6 % Inh 5 mg/kg (mouse)” value at ABHD6 [5] is on record as “# (# is <25%)”.

Take `Cc1c(CN2CCCC23CCN(C(=O)OC(C(F)(F)F)C(F)(F)F)CC3)cccc1N1CCCC1` [Example 85, 1,1,1,3,3,3-Hexafluoropropan-2-yl 1-(2-methyl-3-(pyrrolidin-1-yl)benzyl)-1,8-diazaspiro[4.5]decane-8-carboxylate]: the inhibition at 1 µM on FAAH [1] was less than 25%; at ABHD6 [3] it was less than 25%; on MAGL [6], more than 75%. Also, the figures for the IC50 at FAAH [1], on ABHD6 [3] and on MAGL [6] were more than 1000 nM, more than 1000 nM and less than 100 nM, respectively. Also, on MAGL [2], the “MAGL % Inh 5 mg/kg (mouse)” value is “### (### is ≥75%)”. Also, the “FAAH % Inh 5 mg/kg (mouse)” value at FAAH [4] is “# (# is <25%)”. The “ABHD6 % Inh 5 mg/kg (mouse)” value on ABHD6 [5] is given as “# (# is <25%)”.

For the origin of these results see US10030020B2, “Spirocycle compounds and methods of making and using same” (Abide Therapeutics, Inc., priority 2016, dated 2018).
